This is an account of results in patent US20250367129A1, “Lipid Compounds and Uses Thereof” (Pfizer Inc., priority 2022, published 2025).

The structures appear in SMILES notation.

Data set [1] has as its system Hela cells. The data set is described as follows: In vitro expression of novel ionizable lipid nanoparticles, high content imaging (CA HA modFlu mRNA). The class given is cell-based. Conditions: LNP with CA HA modFlu mRNA. The protocol:
(§1) Plated Hek293T or Hela cells were dosed with lipid nanoparticles in a total volume of 40 μl cell culture media and incubated overnight at 37° C. and 5% CO2. After fixation with 4% paraformaldehyde in PBS cells were washed in PBS containing 0.3% Triton-X100 and 3% BSA (w/v), followed by nuclear staining with Hoechst and antibody staining for the encoded gene of interest. Nuclear count and identification of cells stained positive for gene of interest was done on an Opera Phenix high content imager (PerkinElmer, USA).
(§2) Lipid nanoparticles were prepared and tested according to the general procedures described in U.S. Pat. No. 9,737,619 (PCT Pub. No. WO2015/199952) and U.S. Pat. No. 10,166,298 (PCT Pub. No. WO 2017/075531) and PCT Pub. No. WO2020/146805. The novel ionizable lipids of the invention, cholesterol, distearoylphosphatidylcholine (DSPC) and ALC-0159 2-[(polyethylene glycol)-2000]-N,N ditetradecylacetamide were solubilized in ethanol at a molar ratio of about 46.3:42.7:9.4:1.6. Lipid nanoparticles were made by mixing the lipids containing organic phase with the mRNA containing aqueous phase using an N:P ratio of about 6:1. The mRNA was diluted in buffer. Syringe pumps were used to mix the ethanolic lipid solution with the mRNA aqueous solution. The ethanol was then removed, and the external buffer replaced with another buffer (e.g., Tris) by dialysis. Finally, the lipid nanoparticles were filtered.
(§3) Total RNA concentration and encapsulation efficiency was assessed using the RiboGreen RNA quantitation assay. RNA integrity pre and post formulation was monitored by Agilent Fragment Analyzer capillary gel electrophoresis. Malvern Zetasizer dynamic light scattering (DLS) was used to determine LNP size and polydispersity index (PDI). In vitro expression of the novel ionizable lipid nanoparticles was assessed in HEK293F and Hela cells similar to described in Example 72. Nuclear count and identification of cells stained positive for gene of interest was done on an Opera Phenix high content imager (PerkinElmer, USA).

For data set [2], the system named is HEK293F cells. The description is as above. Conditions: LNP with CA HA modFlu mRNA. The class given is cell-based. The procedure:
as §1, §2, §3

A short description of data set [3]: LNP size and polydispersity index by Malvern Zetasizer dynamic light scattering (CA HA modFlu mRNA LNPs). Conditions: DLS; for Size (nm): LNP of the ionizable lipid:cholesterol:DSPC:ALC-0159 about 46.3:42.7:9.4:1.6, N:P about 6:1, CA HA modFlu mRNA; for PDI: LNP with CA HA modFlu mRNA. The class given is physicochemical. The protocol:
as §2, §3

Data set [4] can be described thus: Encapsulation efficiency, RiboGreen RNA quantitation assay (CA HA modFlu mRNA LNPs). It counts as physicochemical. The note with it: LNP with CA HA modFlu mRNA. The procedure:
as §2, §3

Regarding `CCCCCCCC(CCCCCCC)C(=O)O[C@H]1CC2(CCN(CCCCO)CC2)C[C@@H]1OC(=O)C(CCCCCCC)CCCCCCC` (single isomer, unassigned) [Example 58, (2S*,3S*)-8-(4-hydroxybutyl)-8-azaspiro[4.5]decane-2,3-diyl bis(2-heptylnonanoate)], in data set [1], the “EC50 Hela (ng/well)” value is listed as 1.7 ng/well. Besides, the “EC50 Hek293F (ng/well)” value in data set [2] is on record as 1.6 ng/well. In data set [3], the “Size (nm)” value is given as 79 nm and the PDI turned out to be 0.125. Moreover, the EE % in data set [4] worked out at 98%.
As to `CCCCCCCCC(C(=O)OCC(COC(=O)C(CCCCCCCC)C1CCC1)N1CCC2(CCN(CCCCO)CC2)CC1)C1CCC1` (centres unmarked) [Example 4, 2-(9-(4-hydroxybutyl)-3,9-diazaspiro[5.5]undecan-3-yl)propane-1,3-diyl bis(2-cyclobutyldecanoate)], the “EC50 Hela (ng/well)” value in data set [1] is listed as >50 ng/well. In addition, the “EC50 Hek293F (ng/well)” value in data set [2] turned out to be 46.9 ng/well. In addition, in data set [3], the “Size (nm)” value was found to be 97 nm and the PDI is 0.170. In data set [4], this compound registered an EE % of 98%.
With `CCCCCCCCC(CCCCCC)C(=O)OCC(COC(=O)C(CCCCCC)CCCCCCCC)N1CCC2(CCN(CCCCCO)CC2)CC1` (centres unmarked) [Example 5, 2-(9-(5-hydroxypentyl)-3,9-diazaspiro[5.5]undecan-3-yl)propane-1,3-diyl bis(2-hexyldecanoate)], the “EC50 Hela (ng/well)” value in data set [1] is listed as 4.3 ng/well. In data set [2], the “EC50 Hek293F (ng/well)” value worked out at 1.32 ng/well. Besides, in data set [3], the “Size (nm)” value was 136 nm and the PDI was determined as 0.040. The EE % in data set [4] came out at 100%.
For `CCCCCCCCC(CCCCCC)C(=O)OCC(COC(=O)C(CCCCCC)CCCCCCCC)N1CCC2(CCN(CCCCO)C2)CC1` (centres unmarked) [Example 6, 2-(2-(4-hydroxybutyl)-2,8-diazaspiro[4.5]decan-8-yl)propane-1,3-diyl bis(2-hexyldecanoate)], in that order: 1.1 ng/well, 0.42 ng/well, 133 nm, 0.080 and 100%.
With `CCCCCCCCCCCCCCCC(=O)OCC(COC(=O)C(CCCCCC)CCCCCCCC)N1CCC2(CCN(CCCCO)CC2)CC1` (centres unmarked) [Example 7, 3-((2-hexyldecanoyl)oxy)-2-(9-(4-hydroxybutyl)-3,9-diazaspiro[5.5]undecan-3-yl)propyl palmitate], the “EC50 Hela (ng/well)” value in data set [1] is given as 2.0 ng/well. In addition, the “EC50 Hek293F (ng/well)” value in data set [2] was 20.4 ng/well. Also, in data set [3], the “Size (nm)” value is given as 84 nm and the PDI worked out at 0.130. This compound also came in with an EE % in data set [4] of 99%.
Take `CCCCCCCC(CCCCCCC)C(=O)OCC(COC(=O)C(CCCCCCC)CCCCCCC)N1CCC2(CCN(CCCNc3c(NC)c(=O)c3=O)CC2)CC1` [Example 8, 2-(9-(3-((2-(methylamino)-3,4-dioxocyclobut-1-en-1-yl)amino)propyl)-3,9-diazaspiro[5.5]undecan-3-yl)propane-1,3-diyl bis(2-heptylnonanoate)]: the “EC50 Hela (ng/well)” value in data set [1] is listed as 2.5 ng/well. Moreover, the “EC50 Hek293F (ng/well)” value in data set [2] is on record as 4.1 ng/well. Besides, in data set [3], the “Size (nm)” value is given as 68 nm and the PDI is 0.101. Also, the EE % in data set [4] was found to be 100%.
In the case of `CCCCCCCCC(CCCCCC)C(=O)OCC(COC(=O)C(CCCCCC)CCCCCCCC)N1CCC2(CCN(CCCNC(=O)C3(C)CC3)CC2)CC1` (centres unmarked) [Example 9, 2-(9-(3-(1-methylcyclopropane-1-carboxamido)propyl)-3,9-diazaspiro[5.5]undecan-3-yl)propane-1,3-diyl bis(2-hexyldecanoate)], in data set [1], the “EC50 Hela (ng/well)” value is listed as 4.2 ng/well. For the same compound, the “EC50 Hek293F (ng/well)” value in data set [2] is 2.6 ng/well. Besides, in data set [3], the “Size (nm)” value is given as 96 nm and the PDI is recorded as 0.070. In data set [4], the EE % was determined as 99%.
Consider `CCCCCCCC(CCCCCCC)C(=O)OCC(COC(=O)C(CCCCCCC)CCCCCCC)N1CCC2(CCN(CCCO)CC2)CC1` [Example 10, 2-(9-(3-hydroxypropyl)-3,9-diazaspiro[5.5]undecan-3-yl)propane-1,3-diyl bis(2-heptylnonanoate)], for which, in data set [1], the “EC50 Hela (ng/well)” value is listed as 1.5 ng/well. Also, the “EC50 Hek293F (ng/well)” value in data set [2] is on record as 1.3 ng/well. Further, in data set [3], the “Size (nm)” value turned out to be 109 nm and the PDI is reported as 0.054. For the same compound, the EE % in data set [4] is on record as 99%.
Turning to `CCCCCCCCC(CCCCCC)C(=O)OCC(COC(=O)C(CCCCCC)CCCCCCCC)N1CCC2(CCN(CCCNS(=O)(=O)CC)CC2)CC1` (centres unmarked) [Example 11, 2-(9-(3-(ethylsulfonamido)propyl)-3,9-diazaspiro[5.5]undecan-3-yl)propane-1,3-diyl bis(2-hexyldecanoate)], the “EC50 Hela (ng/well)” value in data set [1] came out at 13.8 ng/well. Also, the “EC50 Hek293F (ng/well)” value in data set [2] worked out at 3.7 ng/well. In data set [3], the “Size (nm)” value was 121 nm and the PDI turned out to be 0.080. The same compound came in with an EE % in data set [4] of 99%.
Turning to `CCCCCCCC(CCCCCCC)C(=O)OCC(COC(=O)C(CCCCCCC)CCCCCCC)N1CCC2(CCN(CCCCO)C2)C1` (centres unmarked) [Example 12, 2-(7-(4-hydroxybutyl)-2,7-diazaspiro[4.4]nonan-2-yl)propane-1,3-diyl bis(2-heptylnonanoate)], in data set [1], the “EC50 Hela (ng/well)” value came to 0.44 ng/well. In addition, the “EC50 Hek293F (ng/well)” value in data set [2] worked out at 0.22 ng/well. Also, in data set [3], the “Size (nm)” value came to 105 nm and the PDI came out at 0.042. In data set [4], this compound returned an EE % of 100%.
With `CCCCCCCC(CCCCCCC)C(=O)OCC(COC(=O)C(CCCCCCC)CCCCCCC)N1CC2(CCN(CCCCO)CC2)C1` [Example 13, 2-(7-(4-hydroxybutyl)-2,7-diazaspiro[3.5]nonan-2-yl)propane-1,3-diyl bis(2-heptylnonanoate)], the “EC50 Hela (ng/well)” value in data set [1] stood at 1.6 ng/well. The “EC50 Hek293F (ng/well)” value in data set [2] is 0.36 ng/well. Moreover, in data set [3], the “Size (nm)” value was determined as 131 nm and the PDI was found to be 0.086. For the same compound, the EE % in data set [4] was 99%.
`CCCCCCCC(CCCCCCC)C(=O)OCC(COC(=O)C(CCCCCCC)CCCCCCC)N1CCC2(CCN(CCCCO)CC2)C1` [Example 14, 2-(8-(4-hydroxybutyl)-2,8-diazaspiro[4.5]decan-2-yl)propane-1,3-diyl bis(2-heptylnonanoate)]: the “EC50 Hela (ng/well)” value in data set [1] is reported as 2.5 ng/well. Moreover, the “EC50 Hek293F (ng/well)” value in data set [2] is reported as 1.5 ng/well. In data set [3], the “Size (nm)” value turned out to be 114 nm and the PDI is reported as 0.036. In data set [4], the EE % is listed as 100%.
For the compound `CCCCCCCCC(CCCCCC)C(=O)OCCC(CCOC(=O)C(CCCCCC)CCCCCCCC)N1CCC2(CCN(CCCCO)CC2)CC1` (centres unmarked) [Example 15, 3-(9-(4-hydroxybutyl)-3,9-diazaspiro[5.5]undecan-3-yl)pentane-1,5-diyl bis(2-hexyldecanoate)], the “EC50 Hela (ng/well)” value in data set [1] is listed as 2.7 ng/well. The “EC50 Hek293F (ng/well)” value in data set [2] is reported as 4.0 ng/well. In addition, in data set [3], the “Size (nm)” value was found to be 110 nm and the PDI came out at 0.120. The compound also yielded an EE % in data set [4] of 100%.
For the compound `CCCCCCCCC(CCCCCC)C(=O)OCC(COC(=O)C(CCCCCC)CCCCCCCC)N1CCC2(CCN(CCCCCO)C2)C1` (centres unmarked) [Example 16, 2-(7-(5-hydroxypentyl)-2,7-diazaspiro[4.4]nonan-2-yl)propane-1,3-diyl bis(2-hexyldecanoate)], in data set [1], the “EC50 Hela (ng/well)” value is 0.18 ng/well. Besides, in data set [2], the “EC50 Hek293F (ng/well)” value is 0.11 ng/well. Also, in data set [3], the “Size (nm)” value is reported as 134 nm and the PDI was found to be 0.090. Besides, in data set [4], the EE % was determined as 99%.
`CCCCCCCCC(CCCCCC)C(=O)OCC(COC(=O)C(CCCCCC)CCCCCCCC)N1CCC2(CCN(CCCCCO)C2)CC1` (centres unmarked) [Example 17, 2-(2-(5-hydroxypentyl)-2,8-diazaspiro[4.5]decan-8-yl)propane-1,3-diyl bis(2-hexyldecanoate)]: the “EC50 Hela (ng/well)” value in data set [1] is 1.3 ng/well. The “EC50 Hek293F (ng/well)” value in data set [2] is listed as 0.64 ng/well. For the same compound, in data set [3], the “Size (nm)” value came out at 149 nm and the PDI stood at 0.053. In data set [4], this compound registered an EE % of 100%.
Consider `CCCCCCCC(CCCCCCC)C(=O)OCC(COC(=O)C(CCCCCCC)CCCCCCC)N1CC2(CCN(CCCCCO)CC2)C1` [Example 18, 2-(7-(5-hydroxypentyl)-2,7-diazaspiro[3.5]nonan-2-yl)propane-1,3-diyl bis(2-heptylnonanoate)], for which the “EC50 Hela (ng/well)” value in data set [1] came to 1.4 ng/well. For the same compound, the “EC50 Hek293F (ng/well)” value in data set [2] is on record as 0.57 ng/well. Besides, in data set [3], the “Size (nm)” value was determined as 149 nm and the PDI came to 0.060. In data set [4], this compound showed an EE % of 99%.
